According to patent US12616698B2, “Methods for reducing liver fat and for treating fatty liver disorders” (Corcept Therapeutics Incorporated, priority 2021, dated 2026):
“Also recorded” adds a separate entry of the source.

Tests used:
Male C57 mice = assay: High-fat diet mice: liver triglycerides and plasma AST; assay type: in vivo, mouse; conditions: 60 mg/kg once a day oral gavage
Procedure: Male C57 mice (n=24) were given a diet containing […] (a high-fat, “fast food” diet) for 3 weeks. Miricorilant (60 mg/kg) was administered once a day via oral gavage. Plasma aspartate aminotransferase (AST) was measured on days 3, 7, 12, and 18 and 6 mice were sacrificed each week at weeks 1, 2, and 3 for the miricorilant groups and at week 3 for the control (high-fat diet, no miricorilant) group for assessment of liver triglycerides.

[1] = Example 6 study: pharmacokinetics; conditions: human, in vivo, oral; one patient (FIG. 13)
[2] = system: patients presumed to have NASH; assay: Phase 2a study: liver enzymes (ALT, AST), bilirubin, Hy's Law (eDISH plot); assay type: in vivo, human
From the text: (§1) A Phase 2a, randomized, double-blind, placebo-controlled study (ClinicalTrials.gov Identifier: NCT03823703) was begun to assess the efficacy of two dose levels of miricorilant versus placebo in reducing liver fat in patients who were presumed to have non-alcoholic steatohepatitis (NASH), that presumption based on blood tests and noninvasive measures. Written informed consent was obtained before initiating any study-mandated procedures. The full study was planned to enroll approximately 120 patients, randomized 1:1:1 to receive daily 900 mg miricorilant:600 mg miricorilant: matching placebo.
Other endpoints monitoring and assessment for safety for all study participants. Safety endpoints included the incidence of TEAEs, AEs, and SAEs; changes from Baseline in clinical laboratory tests (hematology and chemistry panels); changes from Baseline in physical examinations and vital sign measurements; changes from Baseline in ECG parameters.
Liver enzyme levels were measured in the patients.
Bilirubin and liver enzyme levels were measured in the patients at baseline. […] Bilirubin and ALT levels that combined are placed in the upper right quadrant of the graph, labelled “Hy's Law Quadrant”, indicate that the patient is at high risk of severe hepatocellular injury. The cholestasis quadrant is the location on the graph where bilirubin levels are greater than twice the ULN for bilirubin. The “Temple's Corollary” quadrant is the location on the graph where peak ALT levels are greater than 3 times the ULN for ALT, but bilirubin levels are less than twice the ULN for bilirubin.

[3] = system: patients with presumed NASH; assay: Example 6 study: transaminases and safety laboratory values; assay type: in vivo, human
Procedure: This study was a double-blind, multi-center, placebo-controlled, randomized 3-arm phase 2a study (NCT03823703) conducted to assess the safety and efficacy of miricorilant in reducing liver fat content (LFC) in patients with presumed NASH. Adult patients (18-75 years) with presumed NASH were randomized 1:1:1 to miricorilant 600 mg daily, miricorilant 900 mg daily, or placebo for 12 weeks. […] Abbreviations used in this Example and in the Figures include: ALP, alkaline phosphatase; ALT, alanine aminotransferase; AST, aspartate aminotransferase; ELF, enhanced liver fibrosis; LFC, liver fat content; NASH, non-alcoholic steatohepatitis; ULN, upper limit of normal; AUC, area under the concentration-time curve; Cmax, maximum concentration; EOT, end of treatment; GGT, gamma-glutamyltransferase; INR, international normalized ratio; MRI-PDFF, magnetic resonance imaging-proton density fat fraction; pt, patient; SD, standard deviation; ULN, upper limit of normal; Wk, week.
Key inclusion criteria included that the patients be adults between 18-75 years old; be presumed to suffer from NASH with fibrosis; have LFC as measured by MRI-PDFF≥8%; have levels of AST<5×ULN and ALT<5×ULN; and have eGFR>60 mL/min/1.73 m^2. Primary endpoints included relative change in LFC from baseline by MRI-PDFF. Secondary endpoints included change from baseline in AST, ALT, GGT, and change from baseline in ELF score.
Patients were divided into different cohorts and received different regimens of miricorilant. The cohorts included patients receiving 30 mg mircorilant once per day; patients receiving 50 mg mircorilant once per day; patients receiving 100 mg mircorilant once per day; patients receiving 150 mg mircorilant once per day; patients receiving 100 mg mircorilant on Mondays, Wednesdays, and Fridays; patients receiving 100 mg mircorilant on Mondays and Fridays; and patients receiving 200 mg mircorilant once per week. Patients receiving 100 mg mircorilant on Mondays and Fridays were termed “Cohort 6”.
FIG. 13 provides a plot of MRI-PDFF (top line beginning at week 0) and liver enzyme alanine aminotransferase (ALT; bottom line beginning at week 0) for a patient who received miricorilant treatment that included a cessation of miricorilant treatment from week 7 to week 10. […] GGT was elevated at baseline (peak 88 U/L at Wk 10); at other weeks it was below baseline. Eosinophils (%) baseline 7.3, decreased to 2.2 at Wk 2 and increased Wk 3 (peak 4.3), decreased Wk 8 (2.0) and stable until EOT.

[4] = system: patients presumed to have NASH; assay: Phase 2a study: liver volume and liver size by MRI; assay type: in vivo, human; conditions: for Percent Change from Baseline in Liver: liver volume
From the text: as §1
Patients were randomized in a 1:1:1 ratio to 600 mg miricorilant, 900 mg miricorilant, or placebo. Study drug was administered once daily, orally with 8 oz (240 mL) of water, along with food. Patients were instructed to take a total of 6 tablets at approximately the same time each day. Those in the 600 miricorilant group took 4 miricorilant tablets and 2 placebo tablets. Those in the 900 miricorilant group took 6 miricorilant tablets. Those in the placebo group took 6 placebo tablets. For the week 6 visit, patients were instructed to not take their daily study drug prior to the visit, but to bring their study drug to the site with them so that the study drug can be administered at the site.
MRI images showing the liver of a patient before (left-hand images) and after receiving daily 600 mg miricorilant (right-hand images) are presented in FIGS. 3A, 3B, and 3C.

Question: For `O=c1[nH]c(=O)c(Cc2cccc(C(F)(F)F)c2)c([C@H]2CC[C@H](c3ccccc3)CC2)[nH]1` [miricorilant, (E)-6-(4-Phenylcyclohexyl)-5-(3-trifluoromethylbenzyl)-1H-pyrimidine-2,4-dione], which Liver triglycerides (Male C57 mice; high-fat diet for 3 weeks, starting at week 1, vs high-fat diet control (FIG. 6A)) is on record?
Answer: Its Liver triglycerides is “rapid reduction”.

Question: And the “Plasma AST” value (Male C57 mice; high-fat diet, no change in dose (FIG. 6B))?
Answer: Its value is “transient increase at 2 weeks but normalized by 3 weeks”.

Question: What about the AUC [1] of the same molecule?
Answer: The AUC was 5900 ng·h/mL.

Question: What about the Cmax [1] of the same molecule?
Answer: The Cmax was 404 ng/mL.

Question: And the “Change in ALP or bilirubin levels” value ([2]; 600 or 900 mg daily)?
Answer: Its value is “No significant change”.

Question: And the “Hy's Law criteria (total bilirubin >2x ULN and ALT or AST >3x ULN)” value ([2]; 600 or 900 mg daily, eDISH plot FIG. 5)?
Answer: The value was “No patient in this study satisfied the criteria for Hy's Law; also recorded: no patient met Hy's Law criteria”.

Question: What about the “Transaminase elevations upon discontinuation of miricorilant” value ([2]; all patients) of the same molecule?
Answer: The value was “resolved rapidly”.

Question: What about the “AST Max” value ([2]; patient 208-4020, 900 mg, 30 days on treatment, baseline 45) of the same molecule?
Answer: Its value is 772 U/L.

Question: And the “ALT Max” value ([2]; patient 208-4020, 900 mg, 30 days on treatment, baseline 69)?
Answer: The value was 1378 U/L.

Question: What about the “AST Max” value ([2]; patient 211-4002, 900 mg, 31 days on treatment, baseline 32) of the same molecule?
Answer: Its value is 113 U/L.

Question: What about the “ALT Max” value ([2]; patient 211-4002, 900 mg, 31 days on treatment, baseline 50) of the same molecule?
Answer: Its value is 386 U/L.

Question: What about the “AST Max” value ([2]; patient 214-4007, 900 mg, 44 days on treatment, baseline 30) of the same molecule?
Answer: Its value is 376 U/L.

Question: What about the “ALT Max” value ([2]; patient 214-4007, 900 mg, 44 days on treatment, baseline 38) of the same molecule?
Answer: Its value is 848 U/L.

Question: What about the “AST Max” value ([2]; patient 233-4018, 600 mg, 34 days on treatment, baseline 26) of the same molecule?
Answer: Its value is 391 U/L.

Question: What about the “ALT Max” value ([2]; patient 233-4018, 600 mg, 34 days on treatment, baseline 41) of the same molecule?
Answer: The value was 955 U/L.

Question: And the “Effect on liver enzymes ALT and AST” value ([2]; patients with presumed NASH, 600 or 900 mg daily for 30-44 days)?
Answer: The value was “isolated rise; also recorded: increase”.

Question: And the Hepatic transaminase levels ([3]; 100 mg twice weekly, over 12 weeks)?
Answer: Its Hepatic transaminase levels is “without an associated rise”.

Question: What about the Safety and tolerability ([3]; including 100 mg twice weekly) of the same molecule?
Answer: The Safety and tolerability was “safe, well tolerated”.

Question: What about the “Eosinophils (%)” value ([3]; one patient (FIG. 13), Wk 2, baseline 7.3) of the same molecule?
Answer: Its value is 2.2%.

Question: And the “Eosinophils (%) peak” value ([3]; one patient (FIG. 13), Wk 3)?
Answer: The value was 4.3%.

Question: And the “Eosinophils (%)” value ([3]; one patient (FIG. 13), Wk 8, stable until EOT)?
Answer: Its value is 2.0%.

Question: And the GGT peak ([3]; one patient (FIG. 13), Wk 10, elevated at baseline)?
Answer: Its GGT peak is 88 U/L.

Question: And the “Total bilirubin, direct bilirubin, ALP, INR” value ([3]; one patient, treatment ceased from week 7 to week 10 (FIG. 13))?
Answer: The value was “within normal limits”.

Question: What about the “Rise in ALT>3×ULN, intermittent compared to daily dosing” value ([3]; responders receiving intermittent miricorilant, all cohorts) of the same molecule?
Answer: Its value is “less likely to have a rise in ALT>3×ULN”.

Question: And the Transaminase levels ([3]; treatment non-responders (FIG. 10))?
Answer: The Transaminase levels was “did not experience a rise”.

Question: What about the “Follow-Up Liver Volume” value ([4]; Patient 1 (responder), 900 mg, baseline 1606 mL) of the same molecule?
Answer: The value was 1303 mL.

Question: And the “Follow-Up Liver Volume” value ([4]; Patient 2 (responder), 900 mg, baseline 1675 mL)?
Answer: Its value is 1314 mL.

Question: What about the “Follow-Up Liver Volume” value ([4]; Patient 3 (responder), 900 mg, baseline 3857 mL) of the same molecule?
Answer: Its value is 3113 mL.

Question: And the “Follow-Up Liver Volume” value ([4]; Patient 4 (responder), 600 mg, baseline 1899 mL)?
Answer: The value was 1505 mL.

Question: What about the “Percent Change from Baseline in Liver” value ([4]; Patient 1 (responder), 900 mg) of the same molecule?
Answer: Its value is −18.9%.

Question: And the “Percent Change from Baseline in Liver” value ([4]; Patient 2 (responder), 900 mg)?
Answer: The value was −21.6%.

Question: What about the “Percent Change from Baseline in Liver” value ([4]; Patient 3 (responder), 900 mg) of the same molecule?
Answer: The value was −19.3%.

Question: What about the “Percent Change from Baseline in Liver” value ([4]; Patient 4 (responder), 600 mg) of the same molecule?
Answer: Its value is −20.7%.
